Experimental data as given in patent US9018257B2, “5-aminolevulinic acid derivatives, methods for their preparation and uses thereof” (Bar Ilan University, priority 2011, dated 2015).

Columns and labels:
[1] = system: K562 cells; test: MTT viability / proliferation of K562 cells; assay type: cell-based, human; settings: 96 hours
Description: Cells are grown in 24 wells plate in a volume of 0.5 mL and treated as indicated for 96 hours. Then, 77 μL of 5 mg/mL MTT (3-[4,5-dimethylthiazol-2-yl]-2,5-diphenyltetrazolium bromide, (Sigma, Israel)) is added to each well for 2 hours. Afterwards, 400 μL of DMF solution (100 gr SDS dissolved in 250 mL dd H2O with 250 mL of DMF) is added for 4 hours. Absorbance is then measured in 570 nm using a Tecan spectrophotometer (NeoTec, Canada).
To evaluate the effect of various tested compounds on cell proliferation, K562 cells were treated for 96 hours and their viability was evaluated by MTT as detailed above.

[2] = system: PBGD mRNA; test: PBGD mRNA, quantitative real-time PCR, K562 cells; assay type: cell-based, human; settings: 0.5 mM, after 48-96 hours
Description: (§1) Total RNA (1 μg) was primed by oligo dT and reverse-transcribed by Verso cDNA kit according to the manufacturer's protocol (Thermo Scientific, West Palm Beach, USA). Quantitative PCR was done on a Step One Plus thermocycler (Applied Byosystems, Van Allen Way, CA, USA). The comparative threshold method was used to calculate the relative gene expression. Values were normalized against glyceraldehyde 3-phosphate dehydrogenase (GAPDH) for the different genes. Real time PCR was performed with Syber Green (Kapa Biosystems, Woburn, Mass., USA) using the following primers: […]
Relative quantification of gene expression was determined by the comparative threshold method (ÄCT), as described previously (Livak K J, Schmittgen T D). Analysis of relative gene expression data using real-time quantitative PCR and the 2(−Delta Delta C(T)) Method. Expression of the Gapdh mRNA in each individual sample was used to normalize the dataset.
(§2) K562 cells are grown as described above and incubated with 0.5 mM of various compounds for 96 hours. Activity of PBGD is evaluated as described above. Expression level of the PBGD protein is evaluated using Western blot analysis (as detailed above). Expression level of PBGD mRNA are evaluated using Quantitative real-time PCR.

[3] = system: α-globin; test: α-globin mRNA, quantitative real-time PCR, K562 cells; assay type: cell-based, human; settings: 0.5 mM, 72 hours (peak)
Description: Globin RNAs are quantified by quantitative real time polymerase chain reaction, (qRT-PCR) using SYBR I Green (Applied Biosystems). The cDNA is generated from cell culture or tissues using a PCR purification kit (Qiagen, Valencia, Calif., USA). The qRT-PCR is performed in triplicate and is repeated in at least three separate experiments.
as §1
(§3) K562 cells are grown as described above and incubated with 0.5 mM of various compounds for 96 hours. Total heme content in the cells is evaluated. In addition, a globin mRNA and protein expression levels are evaluated using Quantitative real-time PCR and Western blot analysis, respectively.

[4] = system: porphobilinogen deaminase (PBGD); test: PBGD enzymatic activity assay in K562 cells; assay type: cell-based, human; settings: 0.5 mM, 96 hours, vs ALA alone, BA alone or mixture
Description: K562 cells (1×10^6) are treated for 96 hours. PBGD activity is assayed as previously described by determining the fluorescence of uroporphyrin formed by the light-induced oxidation of uroporphyrinogen, which is the immediate product of the enzymatic deamination of 4 porphobilinogen molecules. In short, cells are harvested following treatment, and washed twice with PBS. After centrifugation, the pellet was resuspended in 200 μL 50 mM Tris buffer (pH 8.2) with 0.2% Triton. The cells are homogenized on ice and protein levels are quantified using the Bradford method. 400 μg protein was taken out in duplicates for incubation in 300 μL of 50 mM Tris buffer (pH 8.2) containing 0.2% Triton, with final concentration of 85 μM PBG (Sigma, Israel) for 1 hour at 37° C. The reaction is stopped by addition of 1.2 mL 15.6% TCA. […] The samples fluorescence is read using a Synergy spectrofluorometer (BioTek Instruments, VT, USA) with an excitation wavelength of 404 nm, and an emission wavelength of 595 nm. PBGD specific activity is calculated as activity percentage of control.
as §2

[5] = system: PBGD; test: PBGD protein expression, Western blot, K562 cells; assay type: cell-based, human; settings: 0.5 mM, 96 hours, compared to untreated cells or cells treated with ALA
Description: (§4) Proteins are quantified and equalized using the Bradford assay (Bio-Rad, CA, USA) and resolved on a 12% polyacrylamide gel. Afterwards, proteins are transferred from the gel onto nitrocellulose membranes (Bio-Rad, CA, USA) using a semi-dry transfer apparatus (Bio-Rad, CA, USA). After blocking the membranes with phosphate-buffered saline+0.2% Tween-20 (PBST) (Sigma-Aldrich, Israel) and 5% skim-milk (BD-Diagnostic Systems, MD, USA), membranes are incubated with primary rabbit anti-human PBGD antibody (a generous gift from flemeBiotech, Sweden), or with rabbit anti-α-Hb (H80) (Santa Cruz Biotechnology, CA, USA), or with HRP-conjugated mouse anti-β-actin antibody (C4) (Santa Cruz Biotechnology, CA, USA) diluted in blocking solution for 1 h in room temperature or for overnight in 4° c., washed with PBST and incubated with secondary antibodies diluted in blocking solution. Immuno-reactive proteins were visualized with enhanced chemiluminiscence detection EZ-ECL kit (Biological Industries, Israel) used as recommended by the manufacturer.
as §2

[6] = system: K562 cells; test: Intracellular total heme assay in K562 cells; assay type: cell-based, human; settings: 0.5 mM, 96 hours, vs ALA alone, BA alone or mixture
Description: The method for quantitative determination of total heme in cell lysates is performed using hemin as a standard. The “total heme” or “endogenous heme” measured in these assays includes bound and free heme. Following treatments, 100 or 500 μg of cell lysate was added to 100 μL orthotolidine reagent (0.25 gr orthotolidine (Sigma-Aldrich, Israel) dissolved in 80 mL glacial acetic acid (Sigma-Aldrich, Israel) and 10 mL dd H2O). Heme is oxidized to a green product by adding 100 μL of 1.2% H2O2 to the mixture for 10 minutes incubation in the dark. The first oxidation product was further oxidized to a yellow product by adding 0.5 mL of a 1:9 v/v solution of diluted acetic acid. Absorbance of the second product was read at 430 nm using a spectrophotometer (Tecan Trading AG, Switzerland).
as §3

[7] = system: K562 cells; test: PpIX synthesis in K562 cells (FACS fluorescence); assay type: cell-based, human; settings: 0.5 mM, 96 hours, vs 5-ALA alone, BA alone or their mixture
Description: Following treatment, cells are harvested, collected by centrifugation, washed twice and resuspended in 0.5 mL with sterile PBS. PpIX fluorescence is measured in 10,000 cells per sample using a FACS (Becton-Dickinson, CA, USA) with an excitation wavelength of 488 nm and emission wavelength>670 nm. Images of the stained cells are examined using a fluorescent microscope (IX70) (Olympus Tokyo, Japan) using an excitation filter of 330-385 nm and barrier filter at 420 nm […] PpIX fluorescence is measured at the FL-3 channel of FACS Calibur. Additionally, pictures of cells are taken using a fluorescent microscope-Nikon TE200-E, to show PpIX fluorescence.

[8] = system: α-globin; test: α-globin protein expression, Western blot, K562 cells; assay type: cell-based, human; settings: 0.5 mM, 96 hours, compared to any other treatment
Description: as §4, §3

[9] = system: Ferrochelatase; test: Ferrochelatase protein expression in K562 cells; assay type: cell-based, human; settings: vs ALA, BA or their mixture
Description: K562 cells are fixed and stained with primary antibodies anti-αHb or anti-Glycophorin A and are tagged using the compatible secondary antibodies-Alexa 488-conjugated anti-rabbit antibody donkey anti-goat (Invitrogen, Oregon, USA) as recommended by Cell Signaling (MA, USA). Fluorescence is measured in 10,000 cells using FACS with an excitation wavelength of 488 nm and emission wavelength of 530 nm. K562 cells were suspended in paraformaldehyde 4% for 10 min at 37° C., followed by incubation with chilled methanol (final concentration 90%) for 30 min on ice. Cells were washed twice with PBS−/− and blocked with BSA 0.5% in PBS−/− for 10 min at room temperature. Afterwards, the cells were incubated in 50 μL of the primary antibody goat polyclonal Ferrochelatase (Santa Cruz Biotechnology, Santa Cruz, Calif., USA) or goat polyclonal glycophorin A (Santa Cruz Biotechnology, Santa Cruz, Calif., USA) (1:50 in BSA 0.5%) or anti-a Hb for 30 min at room temperature, washed once with PBS−/−, and incubated with a fluorescent donkey anti-goat IgG secondary antibody (1:1000) (Invitrogen, Carlsbad, Calif., USA) for 30 min at room temperature. The cells were washed again with PBS−/− and fluorescence was measured in 10,000 cells per sample using a FACS (Becton-Dickinson, San Jose, Calif., USA) with an excitation wavelength of 488 nm and emission wavelength 530 nm. […]

[10] = system: Balb-c mice; test: Doxorubicin induced anemia in mice, blood hemoglobin; assay type: in vivo; settings: male Balb-c mice, Dox 4 mg/kg ip once a week + 50 mg/kg ip compound, day 19; vs Dox alone
Description: In an additional setting 8 weeks old male Balb-c mice were divided to two groups, Group 1 received 4 mg/kg ip dose of Doxorubicin (Dox) once a week and Group 2 received the same Doxorubicin treatment and in addition the mice were treated with 50 mg/kg ip dose of the tested compound three times a week. Termination was done on day 19, blood samples were drawn by retro-orbital venipuncture under anesthesia. Hemoglobin levels in heparinized whole blood were determined using Drabkints reagent and standard hemoglobin obtained from Sigma-Aldrich and prepared and stored as instructed by the manufacturer.
In vivo 8 weeks old male Balb-c mice were divided to two groups, Group 1 received 4 mg/kg ip dose of doxorubicin (Dox) once a week and Group 2 received the same Dox treatment and in addition the mice were treated with 50 mg/kg ip dose of compound of formula (I-a) (in this example, 1-(butyryloxy)ethyl-5-amino-4-oxopentanoate, (AlaAcBu)) three times a week. The experiment was terminated on day 19, blood samples were drawn by retro-orbital venipuncture under anesthesia. Hemoglobin levels in heparinized whole blood were determined using Drabkin's reagent and standard hemoglobin obtained from Sigma-Aldrich and prepared and stored as instructed by the manufacturer.

[11] = system: K562 cells; test: TEM ultrastructure of K562 cells (cellular maturation); assay type: cell-based, human; settings: 96 hours
Description: Analysis is performed on bone-marrow, spleen and liver, processed as described in [17]. Briefly, cells are treated for 96 hours (hrs), harvested and fixed with Karnovsky fixative. The samples are washed in 0.1 M cacodylate buffer and fixed with 1% OsO4 in 0.1 M sodium cacodylate buffer for 1 hour (h). The samples are then dehydrated in graded ethanol solutions and propylene oxide and embedded in agar mix. Thin sections are cut, stained with uranyl acetate and lead citrate, and observed under a transmission electron microscope.
To evaluate morphologic changes associated with the effect of compound of formula (I-a) (in this example, AlaAcBu) and the ALA+HDACI (in this example, BA) mixture on K562 cells, the cells were examined by immunohystochemical experiments, as shown in FIG. 7.

[12] = system: Glycophorin A; test: Glycophorin A expression by flow cytometry (erythroblast differentiation); assay type: cell-based, human; settings: K562 cells, 0.5 mM, 96 hours; compared to any other treatment
Description: K562 cells are fixed and stained with primary antibodies anti-αHb or anti-Glycophorin A and are tagged using the compatible secondary antibodies-Alexa 488-conjugated anti-rabbit antibody donkey anti-goat (Invitrogen, Oregon, USA) as recommended by Cell Signaling (MA, USA). Fluorescence is measured in 10,000 cells using FACS with an excitation wavelength of 488 nm and emission wavelength of 530 nm. K562 cells were suspended in paraformaldehyde 4% for 10 min at 37° C., followed by incubation with chilled methanol (final concentration 90%) for 30 min on ice. Cells were washed twice with PBS−/− and blocked with BSA 0.5% in PBS−/− for 10 min at room temperature. […] The cells were washed again with PBS−/− and fluorescence was measured in 10,000 cells per sample using a FACS (Becton-Dickinson, San Jose, Calif., USA) with an excitation wavelength of 488 nm and emission wavelength 530 nm.
K562 cells are grown as described above and incubated with 0.5 mM of various compounds for 96 hours. […] Glycophorin A content is measured using immunostaining analyzed by flow cytometry, as detailed above. […]

[13] = system: HDAC class I and II; test: Cellular HDAC activity (Fluor de Lys) in U-251 cells; assay type: cell-based, human; settings: 2 hours with substrate, read-out: IC50 of HDAC inhibition
Description: Inhibition of the activity HDAC class I and II in the cells is performed with the fluorescent kit (AK-503, Biomol, USA). The cells are seeded (10×10^3 cells/well) in 96-well plates (in quadruplicates) in growth medium for 24 hours and then treated. Incubation with the HDAC substrate (Fluor de Lys™) is for 2 hours. The reaction is terminated by the addition of Fluor de Lys™ developer and 2 μM trichostatin A (TSA). The % of inhibition is calculated from the ratio of the fluorescence (measured at 355 nm excitation and 460 nm emission) in the treated compared to the untreated control culture.
In order to test the direct effect of octanoic acid, as well as co-drugs of formula (I-a) (which comprise octanoic acid as the carboxylic acid), on the activity of cellular HDAC, the activity of HDAC is evaluated by incubating U-251 cells for 2 hours with the cell-permeable HDAC fluorometric substrate for HDAC class I and II (Fluor de Lys™), as detailed above.

SMILES: NCC(=O)CCC(=O)O [ALA, 5-aminolevulinic acid]
- cell viability (MTT, mitochondria activity % of control) [1]: did not affect cell viability
- PBGD mRNA level [2]: significantly decreased
- α-globin mRNA expression, fold elevation [3]: 2.2 fold

SMILES: CCCC(=O)OC(C)OC(=O)CCC(=O)CN (stereo not drawn) [AlaAcBu, 1-(butyryloxy)ethyl 5-amino-4-oxopentanoate]
- relative activity of PGBD compared to control [4]: higher
- inhibition of cell proliferation (MTT) [1]: 33%
- expression levels of PGBD (protein, Western blot) [5]: increased similarly
- fold increase in total heme content [6]: higher
- intensity of the fluorescence generated by PpIX [7]: substantially higher
- protein expression levels of α-globin [8]: markedly elevated
- α-globin mRNA expression, fold elevation [3]: 11.3 fold
- Ferrochelatase protein expression [9]: significantly higher level
- hemoglobin level in blood [10]: ameliorate the Dox-induced suppression of erythropoiesis
- ultrastructural changes identified by TEM [11]: chromatin condensation, cytosolic hemoglobinization
- relative expression of Glycophorin A (percentage of control) [12]: highest increase

SMILES: CCCC(=O)O [BA, butyric acid]
- cell viability (MTT, mitochondria activity % of control) [1]: even increased it
- expression levels of PGBD (protein, Western blot) [5]: increased similarly
- α-globin mRNA expression, fold elevation [3]: 9.1 fold

SMILES: CCCCCCCC(=O)O [octanoic acid]
- IC50 [13]: 500 µM
